Data: patent US11174244B2, “Isoquinolin-3-yl carboxamides and preparation and use thereof” (BioSplice Therapeutics, Inc., priority 2016, dated 2021)
pEC50, pIC50: −log10 of the molar value. Blank lines part the entries; values can stand above or below the compound they belong to.

Tests used:
secreted Aβ40 peptide = test: Secreted β-amyloid 40 (Aβ40) peptide assay in APP overexpressing SH-SY5Y-APP cells; type: cell-based; conditions: Homo sapiens, overnight (16-18 hours), supernatant
Description: SH-SY5Y cells were infected with lentivirus to overexpress amyloid (A4) beta precursor protein (APP), hereafter referred to as the SH-SY5Y-APP cells.
SH-SY5Y cells were seeded onto 6-well plates at 5.0×10
[formula] and incubated overnight at 37° C.
Polybrene added for permeability (H9268, Sigma). 24 hours post-transfection, the entire volume from each well was replaced with regular SH-SY5Y medium.
Puromycin-resistant cell were then expanded, harvested and banked. APP-overexpression was controlled by immunoblotting for total APP and Myc-DDK.
The cell assay procedure start 18 h prior to treatment, as SH-SY5Y-APP cells were seeded onto 96-well plates at 2.0×10^4
At this time, designated wells were seeded with SH-SY5Y cells that were seeded and treated with puromycin at 10
Cells were exposed overnight (16-18 hours) in a 37° C. incubator before supernatant was harvested. […] The original plates with seeded cells were tested for cytotoxicity by measure of adenosine triphosphate (ATP) release by adding CellTiter-Glo® diluted 1:4 in distilled water (G7573, Promega) and transferring lysed cells to a completely black 96-well plate to be read with the Cytation3. Plates containing supernatant were spun down at 1200 g for 10 minutes to remove any cellular debris. […]

IL-6 = IL-6 inhibition (HTRF) in LPS-stimulated human peripheral blood mononuclear cells; type: cell-based; conditions: IL-6 in LPS-stimulated huPBMCs; for value in parentheses after >10 (% inhibition at top concentration): where EC50 >10 μM; for pEC50: 22 hours, dose-response starting from 10 μM
Description: After 22 hour incubation, a mixture of ani-IL6XL665 and anti-IL-6 Cryptate diluted in reconstitution buffer (Catalog #62IL6PEC, Cisbio Inc., Bedford, Mass.) was added to each well. […] All samples were processed in duplicate. […] EC50 was determined using software generated by Dotmatics Limited (Windhill Bishops Stortford Herts, UK) using the Levenberg-Marquardt 4 parameter fitting procedure with finite different gradients.

[1] = system: primary human fibroblasts derived from IPF patients (LL29 cells); test: Fibrosis assay: αSMA staining in TGF-β1 treated LL29 fibroblasts; type: cell-based; conditions: for pEC50: LL29 fibroblasts treated with TGF-β1, 4 days, αSMA, dose-response 10 μM to […]
[2] = system: Tau phosphorylation at Ser396 (pSer396); test: Tau phosphorylation assay (pSer396 ELISA / western blot) in SH-SY5Y cells; type: cell-based, human; conditions: overnight (16-18 h) exposure
Description: Two days before treatment, cells were seeded onto 96 well plates at 5×10^4 cells/well.
Wells were visually checked for cell death or change in morphology and supernatants were tested for cytotoxicity by measurement of lactate dehydrogenase release (LDH, CytoToxOne kit, Promega) if necessary.
Cells were lysed with RIPA buffer complemented with phosphatase and protease inhibitors then lysates were spun down at 12,000 g for 10 min to remove any cellular debris. Lysates are then either directly tested for pSer396 by ELISA (Life Technology, Kit KHB7031) or loaded on NuPage Bis-Tris gels for western blot analysis. Colorimetric detection of ELISA signal is performed by Cytation3 plate reader (Biotek) and the chemiluminescence signal for HRP-linked antibodies used in western blotting is detected using a Carestream Image Station. The same pSer396 antibody is used for detection of pTau in both assays.

GSK3β kinase = GSK3β kinase (Homo sapiens (Human), UniProt P49841); test: GSK3β kinase activity assay (Ser/Thr 09 peptide Z-lyte, FRET); type: biochemical; conditions: method calls the values IC50
Sequence of GSK3β kinase (P49841 whole entry): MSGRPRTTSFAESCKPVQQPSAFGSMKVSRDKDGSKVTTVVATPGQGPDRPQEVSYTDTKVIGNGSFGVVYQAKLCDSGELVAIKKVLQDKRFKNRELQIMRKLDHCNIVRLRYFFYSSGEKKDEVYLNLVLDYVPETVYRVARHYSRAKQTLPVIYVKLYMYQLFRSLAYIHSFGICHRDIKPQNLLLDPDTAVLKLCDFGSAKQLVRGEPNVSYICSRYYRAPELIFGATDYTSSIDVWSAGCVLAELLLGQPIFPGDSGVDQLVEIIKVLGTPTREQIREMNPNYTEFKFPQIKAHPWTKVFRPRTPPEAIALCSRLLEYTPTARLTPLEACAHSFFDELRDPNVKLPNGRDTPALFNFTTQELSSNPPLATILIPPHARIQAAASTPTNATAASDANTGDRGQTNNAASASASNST

DYRK1A kinase = DYRK1A kinase (Homo sapiens (Human), UniProt Q13627); test: DYRK1A kinase activity assay (Ser/Thr 18 peptide Z-lyte, FRET); type: biochemical; conditions: method calls the values IC50
[3] = system: SW480 colon carcinoma cells; test: Cell viability assay (CellTiter-Glo) in SW480 cells; type: cell-based, human; conditions: four days incubation
Wnt activity = test: Screening assay for Wnt activity (Sp5-Luc reporter gene assay in SW480 cells); type: cell-based, human; conditions: 36 to 48 hours
Description: The screening assay for Wnt activity is described as follows.
Following incubation, 15 μl of BriteLite Plus luminescence reagent (Perkin Elmer) was added to each well of the 384-well assay plates. The plates were placed on an orbital shaker for 2 min and then luminescence was quantified using the Envision (Perkin Elmer) plate reader.

Compound: Cn1cncc1-c1ccc2cnc(NC(=O)C3C(C)(C)C3(C)C)cc2c1 [Compound 269, 2,2,3,3-Tetramethyl-N-[6-(3-methylimidazol-4-yl)-3-isoquinolyl]cyclopropanecarboxamide]
- pIC50 (secreted Aβ40 peptide): < 5.00

Compound: Cn1cc(-c2ccc3cnc(NC(=O)C4C(C)(C)C4(C)C)cc3c2)nn1 [Compound 277, 2,2,3,3-Tetramethyl-N-(6-(1-methyl-1H-1,2,3-triazol-4-yl)isoquinolin-3-yl) cyclopropane-1-carboxamide]
- value in parentheses after >10 (% inhibition at top concentration) (IL-6): 4.0%

Compound: Cn1cc(-c2ccc3cnc(NC(=O)CN4C5CCC4COC5)cc3c2)cn1 [Compound 347, 2-(3-Oxa-8-azabicyclo[3.2.1]octan-8-yl)-N-(6-(1-methyl-1H-pyrazol-4-yl)isoquinolin-3-yl)acetamide]
- value in parentheses after >10 (% inhibition at top concentration) (IL-6): 4.5%

Compound: Cn1cc(-c2ccc3cnc(NC(=O)CN4C5CCC4CC5)cc3c2)nn1 [Compound 513, 2-(7-Azabicyclo[2.2.1]heptan-7-yl)-N-(6-(1-methyl-1H-1,2,3-triazol-4-yl)isoquinolin-3-yl)acetamide]
- value in parentheses after >10 (% inhibition at top concentration) (IL-6): 14.5%

Compound: Cc1nnc(-c2ccc3cnc(NC(=O)CN4C5CCC4CC5)cc3c2)s1 [Compound 959, 2-(7-Azabicyclo[2.2.1]heptan-7-yl)-N-(6-(5-methyl-1,3,4-thiadiazol-2-yl)isoquinolin-3-yl)acetamide]
- value in parentheses after >10 (% inhibition at top concentration) (IL-6): 6.1%

Compound: Cc1nnc(-c2ccc3cnc(NC(=O)CN4C5CCC4COC5)cc3c2)s1 [Compound 962, 2-(3-Oxa-8-azabicyclo[3.2.1]octan-8-yl)-N-(6-(5-methyl-1,3,4-thiadiazol-2-yl)isoquinolin-3-yl)acetamide]
- value in parentheses after >10 (% inhibition at top concentration) (IL-6): 9.6%

Compound: CC(C)CN1CCC[C@@H](C(=O)Nc2cc3cc(-c4cnn5c4CN(CCF)CC5)ccc3cn2)C1 [Compound 1002, (R)—N-(6-(5-(2-Fluoroethyl)-4,5,6,7-tetrahydropyrazolo[1,5-a]pyrazin-3-yl)isoquinolin-3-yl)-1-isobutylpiperidine-3-carboxamide]
- value in parentheses after >10 (% inhibition at top concentration) ([1]; LL29 fibroblasts treated with TGF-β1, where EC50 >10 μM): 27.5%

Compound: Cn1cc(-c2ccc3cnc(NC(=O)C45CCN(CC4)CC5)cc3c2)cn1 [Compound 1071, N-(6-(1-Methyl-1H-pyrazol-4-yl)isoquinolin-3-yl)quinuclidine-4-carboxamide]
- value in parentheses after >10 (% inhibition at top concentration) (IL-6): 8.8%

- pEC50 [2]: 6.01
- pEC50 (GSK3β kinase): 7.10
- pEC50 (DYRK1A kinase): 7.84
- pEC50 [3]: 5.46
- pEC50 (Wnt activity): 5.46
- pEC50 (IL-6): 5.80
Compound: N-(6-(1-Methyl-1H-pyrazol-4-yl)isoquinolin-3-yl)-2-(6-azaspiro[2.5]octan-6-yl)acetamide [Compound 296]
- pEC50 [1]: 5.71

- pEC50 [2]: 6.46
- pEC50 (GSK3β kinase): 7.36
- pEC50 (DYRK1A kinase): 7.91
- pEC50 [3]: 5.90
- pEC50 (Wnt activity): 5.80
- pEC50 (IL-6): 6.09
Compound: N-(6-(1-Methyl-1H-pyrazol-4-yl)isoquinolin-3-yl)-2-(pyrrolidin-1-yl-2,2,5,5-d4)acetamide [Compound 315]
- pEC50 [1]: 5.74
